Results published in patent publication US6448374B1, “Production of phosphopeptides from casein” (The University of Melbourne, priority 1991, dated 2002).
Where no end group is shown, it is not given here. [ ]: non-standard residue; d: D form. pS = N[C@@H](COP(=O)(O)O)C(=O)O

Tests used:
[1] = phosphate binding of the phosphopeptide; assay type: physicochemical; conditions: calcium phosphate ACPP
Text: (§1) The calcium ACPP can be converted to calcium phosphate ACPP by addition of CaCl2 and Na2HPO4 where the Ca/P final ratio is 1.67. The peptide αs1(59-79) can bind 21 Ca and 13 PO4. The filtrate of the above process is suited for the purification of other bioactive casein peptides by size and charge-based separation technologies and can be used as microbiological growth media, as dietary supplements after debittering or as a nitrogen fertilizer.

[2] = calcium binding of the phosphopeptide; assay type: physicochemical; conditions: calcium phosphate ACPP
Text: as §1

[3] = phosphopeptides released by tryptic digestion of casein; from Australian Patent No. 593365; cited from earlier work

αs1(59-79): casein tryptic phosphopeptide containing -Ser(P)-Ser(P)-Ser(P)-Glu-Glu- (QMEAESI[pS][pS][pS]EEIVPNSVEQK; ends and bridges not checked; also: other serines' phosphorylation not given here)
PO4 bound per peptide [1]: 13 PO4 | Ca bound per peptide [2]: 21 Ca | anticariogenic (tooth-decay-inhibiting) activity [3]: anticariogenic (tooth-decay-inhibiting) activity

β(2-25): casein tryptic phosphopeptide containing -Ser(P)-Ser(P)-Ser(P)-Glu-Glu- (ELEELNVPGEIVESL[pS][pS][pS]EESITR; ends and bridges not checked; also: other serines' phosphorylation not given here)
anticariogenic (tooth-decay-inhibiting) activity [3]: anticariogenic (tooth-decay-inhibiting) activity

αs2(2-21): casein tryptic phosphopeptide containing -Ser(P)-Ser(P)-Ser(P)-Glu-Glu- (NTMEHV[pS][pS][pS]EESIISQETYK; ends and bridges not checked; also: other serines' phosphorylation not given here)
anticariogenic (tooth-decay-inhibiting) activity [3]: anticariogenic (tooth-decay-inhibiting) activity

αs2(46-70): casein tryptic phosphopeptide containing -Ser(P)-Ser(P)-Ser(P)-Glu-Glu- (NANEEEYSIG[pS][pS][pS]EESAEVATEEVK; ends and bridges not checked; also: other serines' phosphorylation not given here)
anticariogenic (tooth-decay-inhibiting) activity [3]: anticariogenic (tooth-decay-inhibiting) activity
